molecular target: T1, FaGT2* (Fragaria x ananassa, UniProt Q66PF4); assay: radiochemical UDP-[…]glucose transfer assay, butanol extraction, LSC; Hanes-Woolf and non-linear fit; format: biochemical; conditions: 100 mM Tris-HCl pH 7.0, 30 °C, 30 min, fixed UDP-glucose (10 010 pmol); GST fusion
T1 construct: gene GT2; full-length ORF, N-terminal GST tag kept (pGEX-4T-1), E. coli BL21(DE3) pLysS; natural allele of FaGT2 with eight amino acid differences, of which R230, E420, I422 (FaGT2: S230, D420, V422) are given
T1 sequence (Q66PF4 whole entry, the tested form may be a part): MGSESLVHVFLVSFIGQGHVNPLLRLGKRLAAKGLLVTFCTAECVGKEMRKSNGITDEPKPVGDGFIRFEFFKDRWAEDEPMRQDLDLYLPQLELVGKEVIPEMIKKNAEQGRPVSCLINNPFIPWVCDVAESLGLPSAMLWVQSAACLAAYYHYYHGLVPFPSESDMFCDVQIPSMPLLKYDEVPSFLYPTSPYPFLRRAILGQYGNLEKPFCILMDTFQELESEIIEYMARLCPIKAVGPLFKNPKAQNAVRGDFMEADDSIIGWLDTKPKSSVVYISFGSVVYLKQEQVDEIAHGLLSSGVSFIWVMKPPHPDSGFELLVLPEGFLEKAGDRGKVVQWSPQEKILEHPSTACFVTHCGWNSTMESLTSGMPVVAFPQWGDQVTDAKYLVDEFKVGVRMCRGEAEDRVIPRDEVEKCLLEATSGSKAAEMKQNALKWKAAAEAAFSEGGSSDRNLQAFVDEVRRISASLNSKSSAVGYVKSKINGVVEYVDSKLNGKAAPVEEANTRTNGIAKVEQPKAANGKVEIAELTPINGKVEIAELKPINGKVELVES

Row | SMILES | Km [µM]
1 | O=C(O)c1ccc(O)cc1 [4-Hydroxybenzoic acid] | 315 ± 8.4
2 | COc1cc(/C=C/C(=O)O)cc(OC)c1O [Sinapic acid] | 35 ± 3
3 | COc1cc(C(=O)O)cc(OC)c1O [Syringic acid] | 262 ± 7
4 | COc1cc(C(=O)O)ccc1O [Vanillic acid] | 364 ± 12.8

— PMC4809288, “Formation of β-glucogallin, the precursor of ellagic acid in strawberry and raspberry” (Journal of Experimental Botany, 2016)
